US20130244875A1, “METHODS AND COMPOSITIONS FOR IMPROVING PLANT HEALTH” (priority 2006, published 2013)

Experiments:
Assay type in all cases: in vivo
[1] = system: PR-2, i.e., β-1,3-glucanase; experiment: Induction of PR2 (northern blot) in DMO soybean sprayed with dicamba or DCSA; conditions: two transgenic soybean lines; 0.25, 0.5 and 1 lb/Acre; 24 hrs after treatment; no induction in untreated or water only
Description: A 14 hour minimum photoperiod was provided with supplemental light at about 600 μE (micro-Einsteins) as needed. Trials were established in a randomized block design randomized by rate with 4 to 6 replications of each treatment.
All herbicide applications were made with the track sprayer using a Teejet® 9501E flat fan nozzle (Spraying Systems Co, Wheaton, Ill.) with air pressure set at a minimum of 24 psi (pounds per square inch), or 165 kpa (kilopascals)). The spray nozzle was kept at a height of about 16 inches above the top of plant material for spraying. The spray volume was 10 gallons per acre or 93 liters per hectare. Applications were made when plants had reached V-3 stage.
Events carrying a DMO transgene in their genome were grown and treated with dicamba (Clarity®, BASF) at 1 lb/Acre at Post-V3 stage. Leaf samples were harvested after 0, 3, 8, 24, 48, 72 hrs after treatment (HAT) and frozen for further analysis. In another experiment, DMO-containing plants were sprayed with either dicamba or DCSA at 0.25, 0.5 and 1 lb/Acre rate and tissue samples were collected 24 HAT. RNA was extracted and analyzed by northern blot analysis using PR-2, i.e., β-1,3-glucanase as a probe. PR-2 is a pathogenesis-related protein known to degrade […] and thus provide protection against fungal pathogens (U.S. Pat. No. 5,670,706 and Uknes et al., 1992).

[2] = system: Pythium ultimum; experiment: Pythium ultimum inoculation of cotton seedlings after spray; conditions: same conditions kill plants not contacted with 3,6-DCSA
Description: Ten-day old Roundup Ready® Flex Cotton (Event MON 88913; U.S. Publ. 20060059590) seedlings were sprayed with a mixture of Roundup Weather Max® (Monsanto Company, St. Louis, Mo.) and 3,6-DCSA (BASF). The control plants were sprayed with water only. The cotton seedlings from both treatments were inoculated with Pythium ultimum by dipping seedling into inoculum slurry, 24 hours after the spray application. The positive control plants were neither sprayed nor inoculated with P. ultimum. […] Cotton plants treated with Roundup® and DCSA were as healthy as were the plants not inoculated with P. ultimum.

[3] = system: soybean plants; experiment: Ozone tolerance of soybeans; conditions: 0.5 lbs/A DCSA about 72 hours before, 10 hours
Description: Many plants are sensitive to ozone (O3), soybeans are particularly sensitive to ozone damage and show leaf flecking and chlorosis. Ozone can be produced in the atmosphere by a photochemical process in air polluted environments. Soybean production can be affected by ozone when soybeans are cultivated near urban areas or air pollution from urban areas is distributed to agricultural areas where soybeans are grown. An experiment was conducted to determine if DCSA treatment of soybean plants will provide tolerance to oxidative stress caused by ozone. Soybeans were treated with 0.5 lbs/A DCSA approximately 72 hours before exposure to ozone. Controls had no DCSA treatment. Four plants were treated with ozone in one 72 quart sterilite container with a clear plexiglass lid. Ozone was generated at 2 concentrations in the container with the plants at a low rate (2.8 ppm, parts per million) or a high rate (770 ppm) and the plants exposed for 10 hours at these concentrations. Light levels at plant height were ˜400μ Einsteins m-2 s-1, enough to insure photosynthesis. Air in the container was mixed using a small fan to insure proper exposure. Plants were removed from the treatment container and placed in a growth chamber to observe symptom development.

[4] = system: soybean plants; experiment: Drought tolerance of soybean plants; conditions: for Root gdwt / Leaf gdwt / Leaf gfwt / Root gfwt: variety 2 under drought stress; for Root gdwt / Leaf gdwt: dry weight; for Root gdwt: surfactant 1.16; for Leaf gdwt: surfactant 2.37; for Leaf gfwt / Root gfwt: fresh weight; for Leaf gfwt: surfactant 8.01; for Root gfwt: surfactant 12.88
Description: Drought tolerance is an important agronomic trait. […] Soybean seeds of two varieties (1 and 2) were planted in soil in 4.5 inch pots, 3 seeds per pot. The seeds were germinated and plants grown to the V1 or V2 growth stage. DCSA was prepared (0.36 grams/60 milliliters in 20 percent acetone with 10 percent surfactant) and the plants sprayed with the DCSA solution at a rate equal to 0.5 pounds/Acre (lb/A) or 1.0 (lb/A) at day 0 or day 3 of the experiment. Water was withheld at day 0. The plants were rated on a scale of 1-4 for drought symptoms; 1—no symptoms; 2—minor symptoms, leaf curling and wilting; 3—substantial symptoms and wilting; 4—dead. The treatments were surfactant only, 0.5 lb/A DCSA, and 1.0 lb/A DCSA. The plants were treated with a surfactant or a DCSA solution, water withheld, and drought symptoms rated 2 days after treatment (2DAT), 3 days after treatment (3DAT), and 3DAT after rehydration (water added to soil saturation and plant recovery from drought symptoms measured). Fresh leaf weight (leaf grams fresh weight, leaf gfwt), fresh root weight (root grams fresh weight, root gfwt), leaf dry weight (leaf grams dry weight, leaf gdwt), and root dry weight (root grams dry weight, root gdwt) were measured.

[5] = system: soybean plants; experiment: AMPA induced yellow flash in soybean; conditions: 8DAT, scale 1-3, surfactant alone 2.7
Description: Yellow flash is a symptom sometimes observed in glyphosate tolerant soybeans treated with glyphosate due to the formation of AMPA (aminomethyl phosphonic acid). A study was conducted to determine if DCSA treatment would protect soybean plants from AMPA induced yellow flash symptoms. Soybean plants were grown to V1-2 growth stage and divided into 3 treatment groups, 3 pots of plants per treatment. The treatments were 0.5 lb/A DCSA, 1.0 lb/A DCSA or surfactant alone. One day after treatment, all of the plants were sprayed with 1 lb/A of AMPA (Sigma Aldrich, St. Louis, Mo.) in surfactant. […] In an aspect of the present invention, a tolerance to yellow flash is provided due to improved plant health by DCSA applied to a plant in need of yellow flash tolerance or DCSA produced in vivo by the action of DMO on dicamba in transgenic plants comprising a DMO transgene.

[6] = system: soybean plants; experiment: Copper injury on soybeans; conditions: DCSA 0.5 lb/A as tank mix or pretreatment 1 hr or 24 hr before 1000 ppm copper; reduced from 45%
From the text: Plants are sensitive to heavy metal toxicity. Heavy metals are present in the environment or sometimes applied to plants for pest control. Symptoms of plant injury following treatment with a heavy metal compound, for example, a compound containing copper, are necrotic leaf spotting and flecking with more severe injury resulting in larger reddish brown spots, […] necrosis and/or necrotic puckered leaves.

Compound: O=C(O)c1c(Cl)ccc(Cl)c1O [DCSA, 3,6-dichloro salicylic acid]
- induction of PR2 at various rates [1]: induction of PR2
- survival of cotton plants after inoculation with Pythium ultimum [2]: survive inoculation
- ozone damage symptoms ([3]; high ozone rate 770 ppm, control lower leaves visibly damaged): did not show any lower leaf damage
- ozone damage symptoms ([3]; low ozone rate 2.8 ppm, controls also without symptoms): no symptoms were observed
- average drought rating ([4]; soybean Variety 1, 0.5 lb/A DCSA, 2DAT, scale 1 no symptoms - 4 dead, surfactant 2): 2.25
- average drought rating ([4]; soybean Variety 1, 0.5 lb/A DCSA, 3DAT fb rehydration, scale 1-4, surfactant 3.25): 3.75
- average drought rating ([4]; soybean Variety 1, 0.5 lb/A DCSA, 3DAT, scale 1-4, surfactant 3.5): 4
- average drought rating ([4]; soybean Variety 1, 1.0 lb/A DCSA, 2DAT, scale 1-4, surfactant 2): 1.75
- average drought rating ([4]; soybean Variety 1, 1.0 lb/A DCSA, 3DAT fb rehydration, scale 1-4, surfactant 3.25): 3.5
- average drought rating ([4]; soybean Variety 1, 1.0 lb/A DCSA, 3DAT, scale 1-4, surfactant 3.5): 3.75
- average drought rating ([4]; soybean Variety 2, 0.5 lb/A DCSA, 2DAT, scale 1 no symptoms - 4 dead, surfactant 1.5): 1
- average drought rating ([4]; soybean Variety 2, 0.5 lb/A DCSA, 3DAT fb rehydration, scale 1-4, surfactant 3): 2.5
- average drought rating ([4]; soybean Variety 2, 0.5 lb/A DCSA, 3DAT, scale 1-4, surfactant 3.5): 2.5
- average drought rating ([4]; soybean Variety 2, 1.0 lb/A DCSA, 2DAT, scale 1-4, surfactant 1.5): 1.25
- average drought rating ([4]; soybean Variety 2, 1.0 lb/A DCSA, 3DAT fb rehydration, scale 1-4, surfactant 3): 2.5
- average drought rating ([4]; soybean Variety 2, 1.0 lb/A DCSA, 3DAT, scale 1-4, surfactant 3.5): 2.5
- Root gdwt ([4]; 0.5 lb/A DCSA): 1.25 g
- Leaf gdwt ([4]; 0.5 lb/A DCSA): 1.43 g
- Leaf gfwt ([4]; 0.5 lb/A DCSA): 9.45 g
- Root gfwt ([4]; 0.5 lb/A DCSA): 13.74 g
- Root gdwt ([4]; 1.0 lb/A DCSA): 1.34 g
- Leaf gdwt ([4]; 1.0 lb/A DCSA): 2.20 g
- Leaf gfwt ([4]; 1.0 lb/A DCSA): 13.94 g
- Root gfwt ([4]; 1.0 lb/A DCSA): 15.40 g
- Average symptoms ([5]; 0.5 lb/A DCSA one day before 1 lb/A AMPA): 3
- Average symptoms ([5]; 1.0 lb/A DCSA one day before 1 lb/A AMPA): 1.7
- Soybean injury levels [6]: 24-33%
